The numbers were not newly measured in publication PMC3372989, “Conformational Differences between Active Angiotensins and Their Inactive Precursors” (Acta Naturae, 2012), which cites them from elsewhere.

The subject of one series is receptors of Ang2. Conditions: ref [4]. The text has this:
The oft-cited example of the structural differences between peptides found in their protein precursor and peptides in a free state is human angiotensinogen and its metabolites; i.e. , angiotensins 1, 2 and 3. Angiotensin 1 (Ang1) is a prohormone that consists of 10 amino acid residues and is produced from angiotensinogen as a result of the cleavage of the N-terminal peptide. […] Angiotensin 2 (Ang2) differs from angiotensin 1 by the absence of two C-terminal amino acid resi ...

The conditions of series [1]: background statement, no reference printed directly at the statement.
The conditions of series [2]: doses needed for immunization (10–50 µg/mouse), even intramuscular and subcutaneous injections. The text has this: The human and mouse angiotensins 1, as well as angiotensins 2 and 3, have identical amino acid sequences. […] Altogether, it makes angiotensins extremely inconvenient immunogens; however, their conjugation with Hsp70, an adjuvant protein from M. tuberculosis, allowed to overcome the immunological tolerance and to eliminate the toxicity. As a result, we ob ...

Consider angiotensin 1, for which, in the series with receptors of Ang2, the “binding to the receptors of Ang2” value is “incapable of binding to the receptors of Ang2”. Further, the physiological activity entry in series [1] was “exhibits no physiological activity”.
On to angiotensin 2, for which, in series [2], the “fatal outcome on introduction into the body” value is reported as “leads to a fatal outcome”. The physiological activity entry in series [1] was “exhibit physiological activity”.
